Results from patent US20240124465A1, “MOLECULES AND METHODS RELATED TO TREATMENT OF DISORDERS ASSOCIATED WITH JAK-2 SIGNALING DYSFUNCTION” (ST. JUDE CHILDREN'S RESEARCH HOSPITAL, priority 2020, published 2024).

What was measured:
Format in all cases: cell-based
[1] = test system: MHH-CALL-4 cells; assay: Cytotoxicity assay (resazurin, 72 hours); design: AUC: unit not given beside the values; conditions: for EC50: MHHCALL4, resazurin; for AUC: area under the dose-response curve
How it was run: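 Cells grown in RPMI1640 with 10% FBS, 2×10⁵ per well, were exposed to pin-transferred compounds in triplicate for 72 h at 37 °C, 5% CO2. Viability was read after 4 h resazurin incubation. Dose-response AUC was calculated per compound; selected data were fitted by non-linear regression.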

[2] = molecular target: T1, JAK1 (Homo sapiens, UniProt P23458); assay: Western blot assay, JAK1 protein degradation; conditions: MHH-CALL-4 cells, vehicle control = 100%
T1 construct: endogenous in cells; host or cells: MHH-CALL-4
T1 sequence (P23458 whole entry): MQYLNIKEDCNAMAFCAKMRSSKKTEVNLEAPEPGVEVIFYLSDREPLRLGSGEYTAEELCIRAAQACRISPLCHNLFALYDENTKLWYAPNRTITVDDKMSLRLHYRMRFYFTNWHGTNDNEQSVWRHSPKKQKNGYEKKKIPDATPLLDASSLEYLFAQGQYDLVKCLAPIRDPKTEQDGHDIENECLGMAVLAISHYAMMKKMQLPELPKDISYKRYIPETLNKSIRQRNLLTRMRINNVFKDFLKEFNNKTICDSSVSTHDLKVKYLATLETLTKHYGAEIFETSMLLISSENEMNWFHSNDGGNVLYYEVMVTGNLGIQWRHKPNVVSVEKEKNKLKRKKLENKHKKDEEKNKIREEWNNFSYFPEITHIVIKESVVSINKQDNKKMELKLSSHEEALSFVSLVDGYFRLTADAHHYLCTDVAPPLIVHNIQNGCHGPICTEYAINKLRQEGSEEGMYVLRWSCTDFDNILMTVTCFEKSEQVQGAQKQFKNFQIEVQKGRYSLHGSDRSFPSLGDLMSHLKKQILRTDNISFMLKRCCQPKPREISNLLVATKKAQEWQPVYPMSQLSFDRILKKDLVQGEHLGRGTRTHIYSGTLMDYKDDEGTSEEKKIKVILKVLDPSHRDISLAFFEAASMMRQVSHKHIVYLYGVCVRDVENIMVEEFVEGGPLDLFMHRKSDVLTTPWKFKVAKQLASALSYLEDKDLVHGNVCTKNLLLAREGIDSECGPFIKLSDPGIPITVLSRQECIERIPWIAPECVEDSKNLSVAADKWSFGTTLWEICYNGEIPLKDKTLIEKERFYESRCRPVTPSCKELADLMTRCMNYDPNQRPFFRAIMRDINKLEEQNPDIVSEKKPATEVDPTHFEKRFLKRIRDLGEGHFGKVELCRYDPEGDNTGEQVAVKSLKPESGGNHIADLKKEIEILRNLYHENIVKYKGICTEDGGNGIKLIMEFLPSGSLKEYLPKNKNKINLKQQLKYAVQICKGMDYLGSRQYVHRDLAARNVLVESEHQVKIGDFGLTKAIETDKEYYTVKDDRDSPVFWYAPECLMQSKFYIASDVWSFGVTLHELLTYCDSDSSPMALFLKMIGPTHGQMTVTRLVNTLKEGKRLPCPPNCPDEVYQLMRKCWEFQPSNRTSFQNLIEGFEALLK
Procedure: (§1) Western blot assay: MHH-CALL-4 Cells were washed twice with ice-cold PBS and lysed in RIPA lysis buffer (Sigma) freshly supplemented with Halt™ Protease Inhibitor Cocktail (ThermoFisher) for 15 minutes on ice. The cell pellet was removed by centrifugation at 13,000 g at 4° C. for 15 minutes. Protein concentration was measured by BCA assay (Thermo Fisher Scientific). Proteins were denatured in NuPAGE LDS 4× sample buffer supplemented with reducing agents (Invitrogen). Typically, 10-20 μg of total protein was loaded per lane on a 4%-12% NUPAGE Bis-Tris gradient gel (Invitrogen) and analyzed by standard immunoblotting and imaged using Li—COR Odyssey CLx (LI-COR Biotechnology, Lincoln, NE). To access the protein degradation, the signal of target protein was normalized by the signal of ACBT and the signal of vehicle control was set as 100%. Primary antibodies used were: JAK1 (Cell Signaling #3332S), JAK2 (#3230S), JAK3 (#8827S), TYK2 (#9312S), GSPT1 (#14980S), CRBN (#71810S), IKZF1 (Santa Cruz Biotechnology, SC-398265) and ACBT (Santa Cruz Biotechnology, SC-47778).

[3] = test system: JAK2; assay: Western blot assay, JAK2 protein degradation; conditions: MHH-CALL-4 cells, vehicle control = 100%
How it was run: (§2)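 Cells (MHH-CALL-4) are washed in cold PBS, lysed in RIPA buffer and cleared at 13,000 g, 4° C. Reduced, denatured protein is run on 4%-12% gels, blotted and imaged by fluorescence; each target signal is divided by ACBT and scaled to vehicle (100%).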

[4] = molecular target: T2, TYK2 (Homo sapiens, UniProt P29597); assay: Western blot assay, TYK2 protein degradation; conditions: MHH-CALL-4 cells, vehicle control = 100%
T2 construct: endogenous in cells; host or cells: MHH-CALL-4
T2 sequence (P29597 whole entry): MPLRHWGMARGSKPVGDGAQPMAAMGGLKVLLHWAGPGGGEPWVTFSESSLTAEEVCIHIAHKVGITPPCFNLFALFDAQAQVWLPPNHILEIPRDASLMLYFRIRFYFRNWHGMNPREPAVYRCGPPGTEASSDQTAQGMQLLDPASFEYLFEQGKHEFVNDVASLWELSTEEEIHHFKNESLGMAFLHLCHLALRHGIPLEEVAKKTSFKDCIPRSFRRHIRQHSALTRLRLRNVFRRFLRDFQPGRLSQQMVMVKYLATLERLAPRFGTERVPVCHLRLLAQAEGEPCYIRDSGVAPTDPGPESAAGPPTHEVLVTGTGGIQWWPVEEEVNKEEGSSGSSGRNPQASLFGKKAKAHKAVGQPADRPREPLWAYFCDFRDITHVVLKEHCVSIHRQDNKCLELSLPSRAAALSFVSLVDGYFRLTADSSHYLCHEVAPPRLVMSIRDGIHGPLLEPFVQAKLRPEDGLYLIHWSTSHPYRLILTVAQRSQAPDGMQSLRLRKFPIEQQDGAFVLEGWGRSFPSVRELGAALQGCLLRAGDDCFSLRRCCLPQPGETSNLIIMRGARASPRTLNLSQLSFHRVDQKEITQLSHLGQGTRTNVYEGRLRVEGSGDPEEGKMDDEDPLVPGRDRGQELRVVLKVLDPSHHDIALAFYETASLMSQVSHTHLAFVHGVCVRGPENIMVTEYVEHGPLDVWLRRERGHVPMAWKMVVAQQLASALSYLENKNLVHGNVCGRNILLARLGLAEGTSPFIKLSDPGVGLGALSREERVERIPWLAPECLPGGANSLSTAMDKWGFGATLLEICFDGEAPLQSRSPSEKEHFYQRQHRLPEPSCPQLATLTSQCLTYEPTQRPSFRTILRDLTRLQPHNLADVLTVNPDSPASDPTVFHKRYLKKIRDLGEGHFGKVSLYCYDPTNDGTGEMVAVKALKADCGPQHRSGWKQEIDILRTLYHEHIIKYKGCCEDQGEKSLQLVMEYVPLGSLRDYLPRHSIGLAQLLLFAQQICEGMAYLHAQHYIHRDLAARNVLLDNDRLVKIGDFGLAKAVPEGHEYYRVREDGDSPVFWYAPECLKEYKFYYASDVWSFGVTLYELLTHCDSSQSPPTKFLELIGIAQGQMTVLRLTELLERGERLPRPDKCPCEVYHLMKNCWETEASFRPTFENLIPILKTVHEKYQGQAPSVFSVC
Procedure: as §1

[5] = molecular target: T3, JAK3 (Homo sapiens, UniProt P52333); assay: Western blot assay, JAK3 protein degradation; conditions: MHHCALL4; 100 nM, 24 h; MHH-CALL-4 cells; vehicle control = 100%; read-out: Target Protein Degradation (% remaining at 100 nM, 24 h) JAK3
T3 construct: endogenous in cells; host or cells: MHH-CALL-4
T3 sequence (P52333 1-1124): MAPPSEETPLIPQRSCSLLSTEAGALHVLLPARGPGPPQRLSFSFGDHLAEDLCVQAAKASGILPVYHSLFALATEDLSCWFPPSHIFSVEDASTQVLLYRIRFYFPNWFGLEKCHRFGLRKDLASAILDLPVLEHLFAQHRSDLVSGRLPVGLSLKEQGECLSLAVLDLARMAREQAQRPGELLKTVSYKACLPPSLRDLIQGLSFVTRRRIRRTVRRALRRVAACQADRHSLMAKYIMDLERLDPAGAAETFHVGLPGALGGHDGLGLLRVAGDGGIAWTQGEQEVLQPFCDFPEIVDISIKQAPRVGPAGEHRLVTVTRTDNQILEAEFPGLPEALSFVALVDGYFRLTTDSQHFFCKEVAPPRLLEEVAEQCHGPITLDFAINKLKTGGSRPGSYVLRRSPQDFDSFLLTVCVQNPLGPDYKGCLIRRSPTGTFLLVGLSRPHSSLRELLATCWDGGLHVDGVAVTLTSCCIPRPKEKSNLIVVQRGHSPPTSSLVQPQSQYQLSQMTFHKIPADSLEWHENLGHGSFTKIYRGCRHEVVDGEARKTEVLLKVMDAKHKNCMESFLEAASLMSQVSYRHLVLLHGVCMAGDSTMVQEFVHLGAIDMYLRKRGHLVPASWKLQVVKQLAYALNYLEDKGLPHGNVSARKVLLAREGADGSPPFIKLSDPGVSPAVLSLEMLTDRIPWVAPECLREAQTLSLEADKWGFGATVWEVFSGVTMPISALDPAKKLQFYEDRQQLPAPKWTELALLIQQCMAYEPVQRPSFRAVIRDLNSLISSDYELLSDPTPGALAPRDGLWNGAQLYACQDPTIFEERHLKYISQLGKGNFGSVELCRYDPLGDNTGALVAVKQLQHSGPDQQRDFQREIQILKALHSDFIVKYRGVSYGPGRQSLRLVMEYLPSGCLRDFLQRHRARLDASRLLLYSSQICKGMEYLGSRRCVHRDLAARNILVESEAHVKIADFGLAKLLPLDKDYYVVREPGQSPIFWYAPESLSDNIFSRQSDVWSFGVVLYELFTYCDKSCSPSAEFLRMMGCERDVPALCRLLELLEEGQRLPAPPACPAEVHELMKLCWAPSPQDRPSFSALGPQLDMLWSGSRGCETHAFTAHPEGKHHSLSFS
How it was run: as §2

[6] = molecular target: T4, GSPT1 (Homo sapiens, UniProt P15170); assay: Western blot assay, GSPT1 neosubstrate degradation; conditions: MHHCALL4; 100 nM, 24 h; MHH-CALL-4 cells; vehicle control = 100%
T4 construct: endogenous in cells; host or cells: MHH-CALL-4
T4 sequence (P15170 whole entry): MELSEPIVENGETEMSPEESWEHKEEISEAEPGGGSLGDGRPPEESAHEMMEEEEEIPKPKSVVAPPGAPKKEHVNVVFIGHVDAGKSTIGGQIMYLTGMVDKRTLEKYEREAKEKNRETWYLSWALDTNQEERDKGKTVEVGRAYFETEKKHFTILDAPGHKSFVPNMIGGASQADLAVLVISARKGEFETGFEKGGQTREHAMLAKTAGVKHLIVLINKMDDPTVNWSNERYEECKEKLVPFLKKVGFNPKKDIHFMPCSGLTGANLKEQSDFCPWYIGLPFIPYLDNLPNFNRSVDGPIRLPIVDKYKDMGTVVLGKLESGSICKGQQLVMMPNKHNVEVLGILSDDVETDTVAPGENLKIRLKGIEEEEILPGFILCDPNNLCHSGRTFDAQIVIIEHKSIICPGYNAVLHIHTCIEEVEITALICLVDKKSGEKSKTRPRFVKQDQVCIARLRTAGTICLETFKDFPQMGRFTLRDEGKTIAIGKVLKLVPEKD
How it was run: as §2

| Structure (SMILES) | Target Protein Degradation (% remaining at 100 nM, 24 h) JAK1 [2] | Target Protein Degradation (% remaining at 100 nM, 24 h) TYK2 [4] | remaining activity at 0.1 µM [5] | remaining activity at 0.1 µM [6] | EC50 [1] | Target Protein Degradation (% remaining at 100 nM, 24 h) JAK2 [3] | AUC [1] |
| --- | --- | --- | --- | --- | --- | --- | --- |
| CCS(=O)(=O)N1CC(CC#N)(n2cc(-c3nc(Nc4ccc(C(=O)NC5CCN(c6ccc(C7CCC(=O)NC7=O)cc6)CC5)cc4)nc4[nH]ccc34)cn2)C1 (stereo not shown) [Compound 46, 4-((4-(1-(3-(cyanomethyl)-1-(ethylsulfonyl)azetidin-3-yl)-1H-pyrazol-4-yl)-7H-pyrrolo[2,3-d]pyrimidin-2-yl)amino)-N-(1-(4-(2,6-dioxopiperidin-3-yl)phenyl)piperidin-4-yl)benzamide] | 98 % remaining | 119 % remaining | – | – | 9.25 nM | 20 % remaining | – |
| CCS(=O)(=O)N1CC(CC#N)(n2cc(-c3nc(Nc4ccc(C(=O)NCCCN5CCN(c6cccc(C7CCC(=O)NC7=O)c6)CC5)cc4)nc4[nH]ccc34)cn2)C1 (stereo not shown) [Compound 42, 4-((4-(1-(3-(cyanomethyl)-1-(ethylsulfonyl)azetidin-3-yl)-1H-pyrazol-4-yl)-7H-pyrrolo[2,3-d]pyrimidin-2-yl)amino)-N-(3-(4-(3-(2,6-dioxopiperidin-3-yl)phenyl)piperazin-1-yl)propyl)benzamide] | 128 % remaining | – | 71% | 76% | 836 nM | 48 % remaining | 139 |
| CCS(=O)(=O)N1CC(CC#N)(n2cc(-c3nc(Nc4ccc(C(=O)N5CCC6(CCN(c7ccc(C8CCC(=O)NC8=O)cc7)CC6)C5)cc4)nc4[nH]ccc34)cn2)C1 (stereo not shown) [Compound 52, 2-(3-(4-(2-((4-(8-(4-(2,6-dioxopiperidin-3-yl)phenyl)-2,8-diazaspiro[4.5]decane-2-carbonyl)phenyl)amino)-7H-pyrrolo[2,3-d]pyrimidin-4-yl)-1H-pyrazol-1-yl)-1-(ethylsulfonyl)azetidin-3-yl)acetonitrile] | 126 % remaining | – | 27% | 72% | 9 nM | 16 % remaining | 180 |
| CCS(=O)(=O)N1CC(CC#N)(n2cc(-c3nc(Nc4ccc(C(=O)N5CCC6(CC5)CCN(c5ccc(C7CCC(=O)NC7=O)cc5)CC6)cc4)nc4[nH]ccc34)cn2)C1 (stereo not shown) [Compound 50, 2-(3-(4-(2-((4-(9-(4-(2,6-dioxopiperidin-3-yl)phenyl)-3,9-diazaspiro[5.5]undecane-3-carbonyl)phenyl)amino)-7H-pyrrolo[2,3-d]pyrimidin-4-yl)-1H-pyrazol-1-yl)-1-(ethylsulfonyl)azetidin-3-yl)acetonitrile] | 85 % remaining | – | 28% | 137% | 9 nM | 11 % remaining | 202 |
| CCS(=O)(=O)N1CC(CC#N)(n2cc(-c3nc(Nc4ccc(C(=O)NCCCCCCCNc5cccc(C6CCC(=O)NC6=O)c5)cc4)nc4[nH]ccc34)cn2)C1 (stereo not shown) [Compound 34] | 90 % remaining | – | 69% | 74% | 31 nM | 71 % remaining | 210 |
| CCS(=O)(=O)N1CC(CC#N)(n2cc(-c3nc(Nc4ccc(C(=O)NCCCNC(=O)COc5cccc(C6CCC(=O)NC6=O)c5)cc4)nc4[nH]ccc34)cn2)C1 (stereo not shown) [Compound 33] | 83 % remaining | – | 71% | 89% | 0.7 nM | 74 % remaining | 185 |
| CCS(=O)(=O)C1CC(CC#N)(n2cc(-c3nc(Nc4ccc(C(=O)NC5CCN(c6cccc7c6C(=O)N(C6CCC(=O)NC6=O)C7=O)CC5)cc4)nc4[nH]ccc34)cn2)C1 (stereo not shown) [Compound 30] | 105 % remaining | – | 77% | 140% | 0.3 nM | 88 % remaining | 215.00 |
| CCS(=O)(=O)N1CC(CC#N)(n2cc(-c3nc(Nc4ccc(C(=O)NCCCCN5CCN(c6ccc7c(c6)C(=O)N(C6CCC(=O)NC6=O)C7=O)CC5)cc4)nc4[nH]ccc34)cn2)C1 (stereo not shown) [Compound 20] | 138 % remaining | – | 102% | 128% | 13.6 nM | 40 % remaining | 123 |

Second part, led by results:

| Target Protein Degradation (% remaining at 100 nM, 24 h) JAK1 [2] | Target Protein Degradation (% remaining at 100 nM, 24 h) TYK2 [4] | remaining activity at 0.1 µM [5] | remaining activity at 0.1 µM [6] | Structure (SMILES) | EC50 [1] | Target Protein Degradation (% remaining at 100 nM, 24 h) JAK2 [3] | AUC [1] |
| --- | --- | --- | --- | --- | --- | --- | --- |
| 97 % remaining | 125 % remaining | 46% | – | CCS(=O)(=O)N1CC(CC#N)(n2cc(-c3nc(Nc4ccc(C(=O)NCCCCOc5cccc(C6CCC(=O)NC6=O)c5)cc4)nc4[nH]ccc34)cn2)C1 (stereo not shown) [Compound 41, 4-((4-(1-(3-(cyanomethyl)-1-(ethylsulfonyl)azetidin-3-yl)-1H-pyrazol-4-yl)-7H-pyrrolo[2,3-d]pyrimidin-2-yl)amino)-N-(4-(3-(2,6-dioxopiperidin-3-yl)phenoxy)butyl)benzamide] | 51.2 nM | 28 % remaining | 202 |
| 118 % remaining | – | 63% | 94% | N#CC[C@H](C1CCCC1)n1cc(-c2nc(Nc3ccc(C(=O)NCCCCOc4ccc(C5CCC(=O)NC5=O)cc4)cc3)nc3[nH]ccc23)cn1 (stereo partly shown) [Compound 36] | 5.4 nM | 32 % remaining | 129 |
| 145 % remaining | – | 109% | 155% | N#CC[C@@H](C1CCCC1)n1cc(-c2nc(Nc3ccc(C(=O)NCCCN4CCN(c5ccc6c(c5)C(=O)N(C5CCC(=O)NC5=O)C6=O)CC4)cc3)nc3[nH]ccc23)cn1 (stereo partly shown) [Compound 23] | 30.9 nM | 67 % remaining | 79 |
| 78 % remaining | – | 50% | 63% | CCS(=O)(=O)N1CC(CC#N)(n2cc(-c3nc(Nc4ccc(C(=O)NCCCCCNc5ccc(C6CCC(=O)NC6=O)cc5)cc4)nc4[nH]ccc34)cn2)C1 (stereo not shown) [Compound 7] | 13.9 nM | 29 % remaining | 248 |
